Results as given in patent publication US9453050B2, “Compositions for treating glioma” (GLIA SP Z.O.O., priority 2011, dated 2016).

What was measured:
microglia cells [1] = test: Real-Time PCR of M2 phenotype markers and iNOS in microglia treated with U87-MG GCM plus peptides; format: cell-based, mouse; settings: 500 μM peptide in GCM, 6 h
Method: (§1) Total RNA (2 μg) isolated from microglia cultures untreated or treated for 6 h with LPS or G-CM was used as a template to generate cDNA. As endogenous control 18S (Hs99999901_s1) rRNA was applied. Gene expression quantification was performed using the Applied Biosystem TaqMan® The real time amplifications were performed in duplicates in a 20 μl reaction volume containing 2×SYBR PCR MasterMix and a set of primers designed using PRIMER EXPRESS software for the following genes: iNOS, COX-2, II1beta, TNF alpha, MMP-2, MMP-9, MMP-14, Arg1, Id1 and c-Myc. The amount of target mRNA was first normalized to the 18S RNA expression level and then to a control. Data were analysed by the Relative Quantification (^ΔΔCt) method using 7500 System SDS software (Applied Biosystems). The expression of each product was normalized to 18S rRNA and is shown as the ratio of the target gene to 18S gene expression, calculated by 2^−ΔΔCt.
U87-MG human glioma cells were plated on 100 mm culture dishes in a total volume of 8 mL culture medium for 24 h. […]
The expression level of genes that were previously identified as markers of the M2 microglia/macrophage phenotype (see FIG. 4.) such as: Arg1, Id1, c-Myc and MMP-14 was determined using Real-Time PCR. Likewise, the expression level of iNOS was determined to evaluate induction of an immune response. […]

[2] = tested on: rat primary microglia cultures; test: GCM-induced amoeboid transformation of microglia (F-actin staining); format: cell-based; settings: pre-incubation with 500 μM peptide; FIG. 6A
Method: Cell culture and treatment. Primary cultures of rat microglia were prepared from 1-day-old Wistar rat pups as described previously (Zawadzka and Kaminska 2003). Briefly, cells were isolated from cerebral cortices by trypsination, mechanically dissociated and plated at the density of 3×10^5 cells/cm^2 in Dulbecco's modified Eagle medium (with Glutamax and high-glucose formula 4.5 g/L, Gibco) supplemented with heat-inactivated 10% fetal bovine serum (Gibco), 100 U/mL penicillin, and 0.1 mg/mL streptomycin on poly-L-lysine coated culture 75 cm^2 flasks. Murine pEGFP-GL261 glioma cells were cultured in DMEM with 10% FBS and antibiotics (50 U/ml penicillin, 50 μg/ml streptomycin). Primary cultures of astrocytes were prepared from cerebral cortex of 2-day-old C57BL/6 newborn mice. Astrocytes were cultured in DMEM media with high glucose supplemented with 10% FBS, 100 U/ml penicillin and 100 μg/ml streptomycin. Culture medium was changed after 3 days and then twice a week. Cell cultures were maintained at 37° C. in humidified 5% CO2/95% air incubator (Heraeus, Hanau, Germany). […]
Cells were washed with a phosphate buffer saline (PBS) and fixed with 2% paraformaldehyde at indicated time periods. […] Morphological alterations were monitored by fluorescent microscopy with excitation 450-490 nm, recorded with 20× objective. […]

[3] = tested on: rat primary microglia cultures; test: Phagocytosis of fluorescent beads by GCM-treated microglia; format: cell-based; settings: 500 μM peptide; FIG. 6B
Method: Microglia cells (1×10^5) were seeded on 24-wells plates and after 24 hours cells were transfected with 25 nM control non-targeting siRNA, and siRNA to αv or β3, or two siRNA together (ON-TARGET siRNA, Dharmacon) using 0.25 μl of DharmaFECT 3 transfection reagent in 0.5 ml culture medium. After 48 h the transfection medium was replaced by G-CM and phagocytic properties of microglia were determined as described. To estimate the silencing efficiency cells were removed from the culture plates by trypsynization and suspended in MACS buffer (PBS, 2 mM EDTA, 0.5% BSA) at final concentration 1×10^5 cells/100 μl. Cell surface expression of the integrins was analysed using primary antibodies to αv or β3 (BD Biosciences) and anti-mouse-Alexa Fluor 647 secondary antibody (Invitrogen). The fluorescent intensity of the labelled cells was analysed with FACSCalibur (Beckton Dickinson). The mean fluorescent intensity was compared with the control siRNA and expressed as the relative change to the control condition for each experimental siRNA.
Phagocytic properties of microglia were determined by incubation of cells with 2 μm fluorescent latex beads (Sigma-Aldrich, Saint Louis, Mo., USA) for 90 min. […] The percentage of cells with none/low (<2 beads per cell), medium (≧2<10) or high (≧10 beads per cell) phagocytic activity was counted. […]

[4] = tested on: phosphorylated FAK, Akt and ERK in microglia cells; test: Immunoblotting of phosphorylated kinases in GCM-treated microglia; format: cell-based, rat; settings: pre-treatment with peptide; FIG. 6E
Method: Whole cell lysates were prepared by scraping the cells into the buffer containing phosphatase and protease inhibitors (20 mM Tris HCl, pH6.8, 137 mM sodium chloride, 25 mM β-glycerophosphate, 2 mM sodium pyrophosphate, 2 mM EDTA, 1 mM sodium orthovanadate, 1% Triton X-100, 10% glycerol, 5 μg/ml leupeptin, 5 μg/ml aprotinin, 2 mM benzamidine, 0.5 mM DTT, 1 mM PMSF). The protein concentration was determined with the Bradford assay (Sigma-Aldrich, Saint Louis, Mo., USA). Protein extracts were separated on SDS-PAGE before electrophoretic transfer onto a nitrocellulose membrane (Amersham Biosciences, Germany) as described (Ellert-Miklaszewska et al. 2005; Sliwa et al. 2007). After blocking with 5% non-fat milk in TBS-T (Tris-buffered saline pH 7.6/0.15% Tween 20) the membranes were incubated with primary antibodies diluted in a blocking buffer overnight and then with relevant secondary antibodies for one hour. Antibodies recognizing phosphorylated and total forms of p38, ERK1/2, JNK, STAT1, STAT3, STATS, AKT, FAK and IκB as well as Cox-2 (all diluted 1:1000) and horseradish peroxidase-conjugated anti-rabbit IgG (diluted 1:2000) were purchased from Cell Signaling Technology (Beverly, Mass., USA); iNOS (diluted 1:2000) from BD Biosciences (Bedford, Mass., USA). Immunocomplexes were visualized by using ECL (Amersham). […]

[5] = tested on: rat primary microglia cultures; test: Scratch assay of microglia motility; format: cell-based; settings: GCM with RGD inhibitor; FIG. 6C
Method: Microglia were platted on a 35 mm Petri dish at the density of 1.5×10^6 cells and after 48 hours the cultures were gently scratched using a pipette tip and microglia cells were cultured under various experimental conditions (control, 100 ng/mL LPS or G-CM). Motility of microglia cells was determined 3 hours after treatment. Migrating cells were visualized by phase-contrast microscopy.
Using the rat lactadherin amino acid sequence, a 7-aa RGD-containing peptide (RGD) was designed as a competitive inhibitor (set forth in SEQ ID NO: 18). A scrambled sequence peptide was used as a control (SCR). Pre-incubation with the chemically synthesized 500 μM RGD peptide, but not with the SCR peptide, prevented transformation of microglia into amoeboid cells following GCM induction (amoeboid cells indicated with arrows) (FIG. 6A).

microglia cells [6] = test: qPCR of GCM-induced genes in microglia exposed to GCM of shRNA-expressing C6 glioma cells; format: cell-based, rat; settings: FIG. 7B
Method: as §1
To investigate the role of identified proteins in GCM-induced activation of microglia cells, stable C6 glioma cell lines expressing shRNAs specific to osteopontin (shSPP1), or a control, negative shRNA (shNeg) were generated. Silencing efficiency was approximately 98.5% (FIGS. 7A and C). Silencing of […] inhibited GCM-induced expression c-Myc and smad7 in microglia cells (FIG. 7B). […]

In the case of “DGRGDSV (SYNTHTIC PEPTIDE) [OPN inhibiting peptide]”, the “Id1 expression level (M2 marker)” value (microglia cells [1]; FIG. 17B-C) is reported as “down-regulated” and the “Arg1 expression level (M2 marker)” value (microglia cells [1]; vs control peptide, FIG. 17A) is reported as “down-regulated”.

With “DQIGFRT [SCR peptide, reference compound]” the “transformation of microglia into amoeboid cells following GCM induction” value [2] was “not”.

For TQRGDIF [RGD peptide], the GCM-induced phagocytosis [3] was “completely blocked”, the “activation of phosphorylated FAK, Akt and ERK kinases by GCM” value [4] was “abolished” and the “microglia migration in a scratch assay” value [5] was “completely blocked”. The “transformation of microglia into amoeboid cells following GCM induction” value [2] was “prevented”.

B1: lactadherin shRNA: shRNA to rat lactadherin, oligonucleotides SEQ ID NO: 25 and 26, stably expressed in C6 glioma cells (nucleic acid)
chain 1: GATCCGGATGAAAGCGGAACCGGATTCAAGAGATCCGGTTCCGCTTTCATCCTGTTTTTTGGAAA
chain 2: AGCTTTTCCAAAAAACAGGATGAAAGCGGAACCGGATCTCTTGAATCCGGTTCCGCTTTCATCCG
modifications: the letters are possibly those of the target site
In the case of B1, the “GCM-induced expression c-Myc and smad7 in microglia cells” value (microglia cells [6]) is reported as “inhibited”.
